Peptide text beside a SMILES is read from it.
Key:
HDAC4 = biological target: T1, HDAC4 (Homo sapiens, UniProt P56524); conditions: Supp. Table 1; cited from earlier work
T1 construct: purchased BPS Biosciences

HDAC6 [1] = conditions: cited from earlier work
HDAC2 [2] = biological target: T2, HDAC2 (Homo sapiens, UniProt Q92769); assay: Initial HDAC2 IC50 estimate (BPS Biosciences HDAC fluorogenic assay kit); type: biochemical; conditions: Supplementary Dataset 2; read-out: HDAC2 activity (initial activity)
T2 construct: purchased Reaction Biology Corporation (assay run by the CRO)
T2 sequence (Q92769 whole entry): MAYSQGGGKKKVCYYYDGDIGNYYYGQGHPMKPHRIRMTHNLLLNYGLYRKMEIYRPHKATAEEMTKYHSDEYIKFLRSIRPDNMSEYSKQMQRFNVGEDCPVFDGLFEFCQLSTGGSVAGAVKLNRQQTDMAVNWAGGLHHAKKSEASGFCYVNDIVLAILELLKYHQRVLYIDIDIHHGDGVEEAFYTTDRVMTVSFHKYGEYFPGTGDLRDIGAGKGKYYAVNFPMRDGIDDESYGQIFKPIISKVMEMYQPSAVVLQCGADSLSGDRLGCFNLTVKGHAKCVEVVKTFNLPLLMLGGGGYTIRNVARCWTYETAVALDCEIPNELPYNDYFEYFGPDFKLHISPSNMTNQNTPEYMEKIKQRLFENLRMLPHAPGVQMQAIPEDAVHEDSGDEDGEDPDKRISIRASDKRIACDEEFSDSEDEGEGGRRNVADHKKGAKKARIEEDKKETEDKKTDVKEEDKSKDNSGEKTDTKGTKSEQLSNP
Description: Initial IC50 values were estimated using HDAC fluorogenic assay kits from BPS Biosciences (HDAC2, HDAC4, and HDAC6) following the protocol described in the kit. All the measures were performed in duplicates or triplicates. These measurements were done either on full range of concentrations (1:10 dilution from 1 µM to 100 pM) or on two concentrations only (20 nM and 200 nM) as an estimate of the range. […] Source Data are provided as a Source Data file.

HDAC3 = biological target: T3, HDAC3 (Homo sapiens, UniProt O15379); assay: HDAC3 inhibition, full IC50 measurement (Reaction Biology; fluorogenic p53 peptide RHKK(Ac)AMC); type: biochemical; conditions: single trial
T3 construct: purchased Reaction Biology Corporation (assay run by the CRO)
T3 sequence (O15379 whole entry): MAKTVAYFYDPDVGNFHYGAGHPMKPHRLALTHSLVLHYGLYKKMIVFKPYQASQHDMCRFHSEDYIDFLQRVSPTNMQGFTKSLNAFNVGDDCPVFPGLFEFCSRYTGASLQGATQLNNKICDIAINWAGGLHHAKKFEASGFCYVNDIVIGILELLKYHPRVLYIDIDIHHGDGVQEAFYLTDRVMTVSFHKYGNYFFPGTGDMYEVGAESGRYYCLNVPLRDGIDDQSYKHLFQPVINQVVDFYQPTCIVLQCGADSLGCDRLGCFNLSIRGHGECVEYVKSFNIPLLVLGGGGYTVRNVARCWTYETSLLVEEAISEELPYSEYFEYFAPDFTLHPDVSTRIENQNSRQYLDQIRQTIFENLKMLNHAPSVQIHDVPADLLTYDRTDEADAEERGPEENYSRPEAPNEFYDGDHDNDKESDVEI
T3 sequence (Q9Y618 395-489 partner limits assumed): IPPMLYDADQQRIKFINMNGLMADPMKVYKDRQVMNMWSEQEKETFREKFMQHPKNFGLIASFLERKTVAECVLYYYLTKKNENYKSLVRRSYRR
Description: (§1) The assay was performed using 50 μM fluorogenic peptide from p53 residues 379-382 [RHKK(Ac)AMC] in a base reaction buffer of 50 mM Tris-HCl at pH 8.0, 137 mM NaCl, 2.7 mM KCl, 1 mM MgCl2, and freshly added 1 mg/ml BSA and 1% DMSO. Peptides were first dissolved in DMSO and then added to the reaction mixture with the enzyme using acoustic technique, enough to reach the desired concentration for that assay point. Peptide concentrations were calculated based on mass of lyophilized peptide and its molecular weight. The substrate was then added and incubated for 1 hour at 30 °C in a sealed container. After the incubation, developer was added to stop the reaction and develop color. Kinetic measurements were then performed for 20 min with Envision with 5 min intervals (Ex/Em = 360/460 nm). The endpoint after plateau was taken for IC50 measurement.
(§2) In cases where duplicate measures are used, average data is reported in the main text or Supplementary Tables.

HDAC2 [3] = biological target: T2, HDAC2; assay: HDAC2 inhibition, full IC50 measurement (Reaction Biology; fluorogenic p53 peptide RHKK(Ac)AMC); type: biochemical; conditions: for HDAC2 activity raw data (signal): single trial
Procedure, shortened: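 Test peptides were dispensed acoustically with enzyme in 50 mM Tris-HCl pH 8.0, 137 mM NaCl, 2.7 mM KCl, 1 mM MgCl2, 1 mg/ml BSA and 1% DMSO. After adding 50 μM RHKK(Ac)AMC, reactions ran 1 h at 30 °C, then developer was added.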

HDAC6 [4] = biological target: T4, HDAC6 (Homo sapiens, UniProt Q9UBN7); assay: HDAC6 inhibition, full IC50 measurement (Reaction Biology; fluorogenic p53 peptide RHKK(Ac)AMC); type: biochemical; conditions: single trial
T4 construct: purchased Reaction Biology Corporation (assay run by the CRO)
T4 sequence (Q9UBN7 1-1215): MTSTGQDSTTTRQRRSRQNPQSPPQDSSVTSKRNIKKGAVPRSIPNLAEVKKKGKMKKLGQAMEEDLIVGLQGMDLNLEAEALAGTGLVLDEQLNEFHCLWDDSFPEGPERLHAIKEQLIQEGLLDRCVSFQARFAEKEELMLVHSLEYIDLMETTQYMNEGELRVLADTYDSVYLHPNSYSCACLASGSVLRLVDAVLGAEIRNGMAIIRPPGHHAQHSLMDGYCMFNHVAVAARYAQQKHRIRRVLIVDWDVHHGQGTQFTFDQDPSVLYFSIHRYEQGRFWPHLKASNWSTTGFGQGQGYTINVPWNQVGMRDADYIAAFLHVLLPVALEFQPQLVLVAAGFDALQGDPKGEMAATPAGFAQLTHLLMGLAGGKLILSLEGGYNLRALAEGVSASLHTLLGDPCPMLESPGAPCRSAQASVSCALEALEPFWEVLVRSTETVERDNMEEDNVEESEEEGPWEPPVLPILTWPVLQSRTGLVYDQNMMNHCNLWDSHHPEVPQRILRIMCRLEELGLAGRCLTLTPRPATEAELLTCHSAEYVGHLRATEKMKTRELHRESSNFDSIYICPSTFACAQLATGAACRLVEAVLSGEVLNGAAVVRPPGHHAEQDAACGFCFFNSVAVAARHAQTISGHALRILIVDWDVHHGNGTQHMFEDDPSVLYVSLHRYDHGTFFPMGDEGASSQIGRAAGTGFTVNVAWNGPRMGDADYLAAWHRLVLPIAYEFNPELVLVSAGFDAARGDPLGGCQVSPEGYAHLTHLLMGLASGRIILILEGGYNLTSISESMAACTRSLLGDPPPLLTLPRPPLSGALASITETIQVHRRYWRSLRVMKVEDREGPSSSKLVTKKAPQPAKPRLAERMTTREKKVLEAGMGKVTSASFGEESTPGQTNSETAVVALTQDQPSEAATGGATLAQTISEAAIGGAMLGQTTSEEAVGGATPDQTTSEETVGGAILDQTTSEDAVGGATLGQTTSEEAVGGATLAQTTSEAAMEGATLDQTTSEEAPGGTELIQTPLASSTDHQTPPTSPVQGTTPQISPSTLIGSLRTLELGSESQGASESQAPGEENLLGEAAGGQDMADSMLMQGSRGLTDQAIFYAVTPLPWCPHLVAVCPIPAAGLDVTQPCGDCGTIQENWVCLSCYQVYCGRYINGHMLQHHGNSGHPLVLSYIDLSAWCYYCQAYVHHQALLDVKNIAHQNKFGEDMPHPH
Description: as §1, §2

T1 sequence (P56524 whole entry): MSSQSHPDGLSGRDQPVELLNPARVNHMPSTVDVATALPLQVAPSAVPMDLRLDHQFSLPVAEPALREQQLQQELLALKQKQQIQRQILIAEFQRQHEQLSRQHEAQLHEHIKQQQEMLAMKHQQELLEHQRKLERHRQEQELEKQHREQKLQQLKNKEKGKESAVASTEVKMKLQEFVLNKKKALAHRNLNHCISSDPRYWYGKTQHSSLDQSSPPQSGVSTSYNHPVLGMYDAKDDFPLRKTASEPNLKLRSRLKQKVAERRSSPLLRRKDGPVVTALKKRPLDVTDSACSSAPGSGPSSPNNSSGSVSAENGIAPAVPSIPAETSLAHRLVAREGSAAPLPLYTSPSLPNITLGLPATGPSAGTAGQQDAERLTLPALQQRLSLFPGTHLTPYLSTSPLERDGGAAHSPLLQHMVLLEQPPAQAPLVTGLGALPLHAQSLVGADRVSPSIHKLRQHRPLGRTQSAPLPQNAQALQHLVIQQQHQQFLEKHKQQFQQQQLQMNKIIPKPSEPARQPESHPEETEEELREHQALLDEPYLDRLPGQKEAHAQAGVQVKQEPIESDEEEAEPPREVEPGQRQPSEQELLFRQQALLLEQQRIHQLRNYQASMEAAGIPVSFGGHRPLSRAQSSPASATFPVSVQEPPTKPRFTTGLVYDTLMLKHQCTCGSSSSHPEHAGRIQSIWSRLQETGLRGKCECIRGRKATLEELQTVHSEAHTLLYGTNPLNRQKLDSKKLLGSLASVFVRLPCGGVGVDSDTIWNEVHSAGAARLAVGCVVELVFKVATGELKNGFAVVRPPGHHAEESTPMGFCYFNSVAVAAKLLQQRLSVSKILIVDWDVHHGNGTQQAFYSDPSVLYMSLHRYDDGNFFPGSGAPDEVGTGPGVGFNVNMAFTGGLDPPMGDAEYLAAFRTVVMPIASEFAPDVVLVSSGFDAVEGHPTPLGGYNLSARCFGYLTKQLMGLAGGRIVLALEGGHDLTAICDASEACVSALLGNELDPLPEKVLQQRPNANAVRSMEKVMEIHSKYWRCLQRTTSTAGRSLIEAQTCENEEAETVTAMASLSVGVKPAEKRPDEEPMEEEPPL

Compound	IC50 (HDAC2 [2]) [nM]	HDAC3 activity raw data (signal) (HDAC3; Conc. 1.00E-04 M)	HDAC3 activity raw data (signal) (HDAC3; Conc. 1.11E-05 M)	HDAC3 activity raw data (signal) (HDAC3; Conc. 1.23E-06 M)	HDAC3 activity raw data (signal) (HDAC3; Conc. 1.37E-07 M)	HDAC3 activity raw data (signal) (HDAC3; Conc. 1.52E-08 M)	HDAC3 activity raw data (signal) (HDAC3; Conc. 3.33E-05 M)	HDAC3 activity raw data (signal) (HDAC3; Conc. 3.70E-06 M)	HDAC3 activity raw data (signal) (HDAC3; Conc. 4.12E-07 M)	HDAC3 activity raw data (signal) (HDAC3; Conc. 4.57E-08 M)	HDAC3 activity raw data (signal) (HDAC3; Conc. 5.08E-09 M)	2-Selectivity: fold potency for HDAC2 over HDAC6 (HDAC2 [3]) [fold]	HDAC2 activity raw data (signal) (HDAC2 [3]; Conc. 1.00E-04 M)	HDAC2 activity raw data (signal) (HDAC2 [3]; Conc. 1.11E-05 M)	HDAC2 activity raw data (signal) (HDAC2 [3]; Conc. 1.23E-06 M)	HDAC2 activity raw data (signal) (HDAC2 [3]; Conc. 1.37E-07 M)	HDAC2 activity raw data (signal) (HDAC2 [3]; Conc. 1.52E-08 M)	HDAC2 activity raw data (signal) (HDAC2 [3]; Conc. 3.33E-05 M)	HDAC2 activity raw data (signal) (HDAC2 [3]; Conc. 3.70E-06 M)	HDAC2 activity raw data (signal) (HDAC2 [3]; Conc. 4.12E-07 M)	further results
C/C=C1\NC(=O)[C@H]2CSSCC/C=C/[C@H](CC(=O)N[C@H](C(C)C)C(=O)N2)OC(=O)[C@H](C(C)C)NC1=O [Romidepsin]	–	–	–	–	–	–	–	–	–	–	–	–	–	–	–	–	–	–	–	–	IC50 (HDAC4): 25 ± 7.3 nM; IC50 (HDAC6 [1]): […]
NCCCC[C@@H]1NC(=O)[C@@H](CC(N)=O)NC(=O)[C@H]2CCCN2C(=O)[C@@H](Cc2c[nH]cn2)NC(=O)[C@H](Cc2ccc(O)cc2)NC(=O)[C@H](CCCCCS)NC(=O)[C@H](CCc2ccccc2)NC1=O [des3.2.4, SHA-Tyr-dHis-dPro-dAsn-Lys-C27] (HELM PEPTIDE1{K.[O=C([C@H](CCc1ccccc1)N[*:1])[*:2]].[O=C([C@H](CCCCCS)N[*:1])[*:2]].Y.[dH].[dP].[dN]}$PEPTIDE1,PEPTIDE1,1:R1-7:R2$$$V2.0)	54	-9402	593	35444	204357	337866	-3894	11659	78893	259781	427232	0.43	-2073	877	16887	156676	359436	-5431	-8111	83192	HDAC2 activity raw data (signal) (HDAC2 [3]; Conc. 4.57E-08 M): 254992; HDAC2 activity raw data (signal) (HDAC2 [3]; Conc. 5.08E-09 M): 399941; HDAC6 activity raw data (signal) (HDAC6 [4]; Conc. 1.00E-04 M): -2801; HDAC6 activity raw data (signal) (HDAC6 [4]; Conc. 1.11E-05 M): -1849; HDAC6 activity raw data (signal) (HDAC6 [4]; Conc. 1.23E-06 M): 4374; HDAC6 activity raw data (signal) (HDAC6 [4]; Conc. 1.37E-07 M): 43765; HDAC6 activity raw data (signal) (HDAC6 [4]; Conc. 1.52E-08 M): 190706; HDAC6 activity raw data (signal) (HDAC6 [4]; Conc. 3.33E-05 M): -563; HDAC6 activity raw data (signal) (HDAC6 [4]; Conc. 3.70E-06 M): -1989; HDAC6 activity raw data (signal) (HDAC6 [4]; Conc. 4.12E-07 M): 12736; HDAC6 activity raw data (signal) (HDAC6 [4]; Conc. 4.57E-08 M): 97833; HDAC6 activity raw data (signal) (HDAC6 [4]; Conc. 5.08E-09 M): 278125
N=C(N)NCCC[C@H]1NC(=O)[C@H]2CCCN2C(=O)[C@@H](Cc2c[nH]cn2)NC(=O)[C@H](Cc2ccc(O)cc2)NC(=O)[C@H](CCCCCS)NC(=O)[C@H](CCc2ccccc2)NC(=O)[C@H](CCCCN)NC1=O [des3.2.5, SHA-Tyr-dHis-dPro-dArg-Lys-C27] (HELM PEPTIDE1{K.[O=C([C@H](CCc1ccccc1)N[*:1])[*:2]].[O=C([C@H](CCCCCS)N[*:1])[*:2]].Y.[dH].[dP].[dR]}$PEPTIDE1,PEPTIDE1,1:R1-7:R2$$$V2.0)	95	-14418	6191	36941	210610	383928	-3999	13003	93966	285917	409923	0.40	-10024	-3664	23341	186535	378556	-4061	7985	87059	HDAC2 activity raw data (signal) (HDAC2 [3]; Conc. 4.57E-08 M): 320609; HDAC2 activity raw data (signal) (HDAC2 [3]; Conc. 5.08E-09 M): 410566; HDAC6 activity raw data (signal) (HDAC6 [4]; Conc. 1.00E-04 M): -6596; HDAC6 activity raw data (signal) (HDAC6 [4]; Conc. 1.11E-05 M): -4177; HDAC6 activity raw data (signal) (HDAC6 [4]; Conc. 1.23E-06 M): 2489; HDAC6 activity raw data (signal) (HDAC6 [4]; Conc. 1.37E-07 M): 40408; HDAC6 activity raw data (signal) (HDAC6 [4]; Conc. 1.52E-08 M): 187931; HDAC6 activity raw data (signal) (HDAC6 [4]; Conc. 3.33E-05 M): -7167; HDAC6 activity raw data (signal) (HDAC6 [4]; Conc. 3.70E-06 M): 1736; HDAC6 activity raw data (signal) (HDAC6 [4]; Conc. 4.12E-07 M): 17454; HDAC6 activity raw data (signal) (HDAC6 [4]; Conc. 4.57E-08 M): 101146; HDAC6 activity raw data (signal) (HDAC6 [4]; Conc. 5.08E-09 M): 300973
